Data taken from patent US20080175872A1, “Controlled Release Dosage Form Containing Lercanidipine and a Performance-enhancing Acid” (OSMOTICA CORP., priority 2006, published 2008).
Values joined by “and” are separate entries in the source; they are usually repeats but may differ in a detail not shown here. Equal values may be shown once.

Assays:
[1] = oral administration of an immediate release form; cited from earlier work
[2] = cited from earlier work
[3] = Stability of lercanidipine HCl polymorph II alone or 1/1 with organic acid, impurities by HPLC; type: physicochemical
Description: Analytical testing of the different samples was done by HPLC, column RP18, 300×3.9 mm ID, particle size 4 μm, in acetonitrile-0.15 M sodium perchlorate buffer, pH 3.0, at a flow rate of 1.3 ml/min, at 30° C., detector UV 240 nm. In all cases impurities were reported as % of the area of the impurity peak referred to the area of the main peak (a/a). The lercanidipine is the lercanidipine HCl polymorph II. […] The lercanidipine is the lercanidipine HCl polymorph II.

[4] = 50° C., 1.5 month, closed vials

COC(=O)C1=C(C)NC(C)=C(C(=O)OC(C)(C)CN(C)CCC(c2ccccc2)c2ccccc2)C1c1cccc([N+](=O)[O-])c1 (centres unmarked) [Lercanidipine, methyl 1,1,N-trimethyl-N-(3,3-diphenylpropyl)-2-aminoethyl 1,4-dihydro-2,6-dimethyl-4-(3-nitrophenyl)pyridine-3,5-dicarboxylate]
peak plasma level (Tmax) [1]: 1 to 3 h
permeability classification as defined by the FDA [2]: low permeable drug
solubility in gastrointestinal pH range ([2]; pH range of 1 to 8): essentially insoluble
Impurity 3 ([3]; 5° C. (reference condition)): 0.18 % a/a and 0.27 % a/a
Impurity B ([3]; 5° C. (reference condition)): 0.02 % a/a and 0.01 % a/a
Maximum unknown impurities ([3]; 5° C. (reference condition)): 0.04 % a/a
Impurity 3 ([3]; 50° C. + 75% RH): 0.28 % a/a and 0.16 % a/a
Impurity B ([3]; 50° C. + 75% RH): 0.01 % a/a
Maximum unknown impurities ([3]; 50° C. + 75% RH): 0.05 % a/a and 0.04 % a/a
Total impurities ([3]; 50° C. + 75% RH): 0.43 % a/a and 0.34 % a/a
Impurity 3 [3, 4]: 0.22 % a/a and 0.30 % a/a
Impurity B [3, 4]: 0.01 % a/a
Maximum unknown impurities [3, 4]: 0.03 % a/a and 0.04 % a/a
Total impurities [3, 4]: 0.31 % a/a and 0.47 % a/a
